The text below walks through data of patent publication US5246940A, “Substituted N-biphenylyl lactams” (Ortho Pharmaceutical Corporation, priority 1993, dated 1993).

Structures can show the parent of a compound that is named as a salt. Where two headings read alike, the source gives them in different places.

Assay [1] deals with T1, angiotensin II-induced vasoconstriction (Oryctolagus cuniculus, UniProt P34976).
T1 sequence (P34976 1-359): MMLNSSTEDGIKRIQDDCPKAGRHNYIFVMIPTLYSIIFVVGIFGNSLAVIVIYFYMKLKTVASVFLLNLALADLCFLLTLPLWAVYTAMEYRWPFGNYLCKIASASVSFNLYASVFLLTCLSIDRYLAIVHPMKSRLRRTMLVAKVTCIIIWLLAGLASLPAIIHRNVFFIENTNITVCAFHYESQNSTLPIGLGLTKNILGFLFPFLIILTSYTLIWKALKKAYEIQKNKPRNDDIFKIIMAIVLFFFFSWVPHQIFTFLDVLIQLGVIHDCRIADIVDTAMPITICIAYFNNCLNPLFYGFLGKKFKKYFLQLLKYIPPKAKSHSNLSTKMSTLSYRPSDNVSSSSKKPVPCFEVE
The assay is described as follows: Inhibition of Angiotensin II Dose-Response in Rabbit Thoracic Aorta. Conditions: for inhibition at 10 µM: read-out: % Inh @ 10^-5 M; for EC90: contraction, 95% C.L. in brackets. Further details: from tissue; host or cells: thoracic aorta rings of New Zealand white rabbits; species or system New Zealand white rabbits. Here is the method:
VII. Cellular and Biochemical pharmacology of DuP 753, an orally active antihypertensive agent. J. Pharmacol. Exp. Ther., 252, 726 (1990)]
Test compounds are diluted in dimethylsulfoxide vehicle such that a 50 μL addition to the tissue bath produces a final bath concentration of 1×10^-5 M compound in Krebs-bicarbonate buffer (baths contain 15 mL Krebs-bicarbonate buffer).
Procedure: 1.8 to 2.3 kg New Zealand white rabbits are sacrificed with an intravenous sodium pentobarbital overdose and the thoracic aorta gently dissected free from the aortic root to the level of the diaphragm, into ice cold Krebs bicarbonate buffer. The aorta is gently freed of clots and adventitia and cleanly cut into 5 mm segments. Each ring is suspended from a Gould isotonic force transducer in a tissue bath containing 15 mL oxygenated Krebs bicarbonate buffer regulated at 37° C. Initial tenison is adjusted to 4.0 g and equilibrated over three 20-minute wash periods with fresh Krebs-bicarbonate buffer to achieve a baseline tension of 3.0 g. […] […] […] In addition, since the test compounds are dissolved in DMSO, DMSO alone is tested in two rings as a vehicle control in each screening experiment.

A further assay relates to Angiotensin Receptor. The experiment in a line: Screening Potential Angiotensin Receptor Antagonists in Salt-Depleted Normotensive Rats (blood pressure after oral dosing). It counts as in vivo, Sprague-Dawley rats. Conditions: oral, salt-depleted normotensive rats; active = MAP decrease of 10 or more mmHg vs concurrent control. The text has this: Test Procedure for Screening Potenital Angiotensin Receptor Antagonists in Salt-Depleted Normotensive Rats
Purpose: This test is designed to detect hypotensive effects of a compound after oral dosing in normotensive animals made renin-dependent by salt depletion. [Wong, P. C., Price, W. A., Chiu, A. T., Duncia, J. V., Carini, D. J., Wexler, R. R., Johnson, A. L., and Timmermans, P. B. M. W. M.: Nonpeptide angiotensin II receptor antagonists. VIII. […] J. Pharmacol. Exp. Ther., 252,726 (1990)]
Solution Preparation: Oral 50 mg/kg furosemide doses are prepared from 10 mg/mL solutions of the intravenous pharmaceutical preparation (Lasix injection, Hoechst-Roussel Pharmaceutical). Test compound is uniformly suspended in 1% methylcellulose.
Method: Male 350-450 g Sprague-Dawley rats are implanted with teflon microcannulae via the middle caudal artery under 20 mg/kg intravenous brevital anesthesia and permitted a 4-7 day surgical recovery period. Throughout recovery and testing animals are individually housed unrestrained in standard rat metabolism cages and receive continuous 0.5 mL/hour intra-arterial 0.25 N saline infusion through a spring-shielded swivelling tether connected to an infusion/blood pressure recording system to maintain arterial cannula patency. Animals are maintained on Low Sodium (0.03%) Pruina Rat Chow #5881 throughout the study. After the recovery period animals are given oral 50 mg/kg furosemide (Lasix, Hoechst-Roussel Pharmaceutical) doses on two consecutive days to produce marked diuresis and plasma volume depletion that makes maintenance of normal blood pressure highly dependent on function of the renin-angiotensin-aldosteronesystem. Three hours after the second furosemide dose, rats are given test compound uniformly suspended in 1% methylcellulose (n=3/dose level) or 1 mL 1% methylcellulose vehicle (n=3) orally by gavage and blood pressure is continuously recorded for 24 h using a Buxco computerized data recording system. Compound-induced changes in blood pressure are compared to concurrent vehicle control blood pressures in order to detect drug effect.
Interpretation: Prior to salt depletion, normotensive rats typically show a plasma renin activity (PRA), measured by Radioimmuno Assay (RIA) of Angiotensin I (as ng Angiotensin I/mL plasma/hour) and yields a RIA of 0.7. After the salt-depletion protocol PRA values taken 3 hour after the furosemide dose have risen to about 7.4. […] PRA is increased by this DuP-753 treatment to about 41.4.
Compounds that decrease blood pressure 10 or more mmHg (MAP) compared to concurrent control after oral dosing are considered active in this test. Maximum possible response is about-35 mmHg. See results in Table 2.

Assay [2] deals with T1, angiotensin II-induced vasoconstriction. The experiment in a line: Angiotensin II Antagonist Dose-Response in Rabbit Thoracic Aorta (Schild plot). Further details: from tissue; host or cells: thoracic aorta rings of New Zealand white rabbits; species or system New Zealand white rabbits. Conditions: for Kb: read-out: pA2 (converted). An excerpt:
Angiotensin II Antagonist Dose-Response in Rabbit Thoracic Aorta Purpose: […] [Chiu, […]., Price, W. A., Wong, […]., Duncia, […]., Yoo, S. E., Johnson, A. L., and […].: Nonpeptide angiotensin II receptor antagonists. VII. Cellular and Biochemical pharmacology of […], an orally active antihypertensive agent. J. Pharmacol. Exp. Ther., 252,726 (1990)]. Solution Preparation: […] For each test an aliquot is freshly thawed and serially diluted with Krebs bicarbonate buffer to provide stock solutions of angiotensin II in buffer for addition to the tissue baths. […] Procedure: 1.8 to 2.3 kg New Zealand white rabbits are sacrificed with an intravenous sodium pentobarbital overdose and the thoracic aorta gently dissected free from the aortic root to the level of the diaphragm, into ice cold Krebs bicarbonate buffer. The aorta is gently freed of clots and adventitia and cleanly cut into 5 mm segments. Each ring is suspended from a Gould isotonic force transducer in a tissue bath containing 15 mL oxygenated Krebs bicarbonate buffer regulated at 37° C. […] The test compound is then given to separate rings at different antagonist concentrations (n=2 rings/test concentration) in order to asses antagonist dose-response. The angiotensin II cumulative dose-response is then repeated in the presence of the test compound. Analysis: Angiotensin II vasoconstrictor tension in grams is expressed as a percent of maximal contraction for the before and after test compound angiotensin II dose-responses. […] See results in Table 2.

For the molecule `CCOC(=O)C=C1N(Cc2ccc(-c3ccccc3-c3nnn[nH]3)cc2)C(=O)CC12CCCCC2` [ac, 5-Carbethoxymethyliden-4-spirocyclohexyl-1-[4-(2-tetrazolophenyl)benzyl]pyrrolidin-2-one Pyridinium Salt,1.2 Hydrate], the inhibition at 10 µM in assay [1] was 100%. Besides, in the assay with Angiotensin Receptor, the “Antihypertensive Activity (p.o.): active @ dose” value was determined as 30 mpk. Also, the pA2 (in general, a measure of antagonist potency on a negative log scale) in assay [2] (Schild plot vs angiotensin II, rabbit thoracic aorta rings) came to 7.93.

As for `CCOC(=O)C=C1N(Cc2ccc(-c3ccccc3-c3nnn[nH]3)cc2)C(=O)CC12CCCCCC2` [ad, 5-Carbethoxymethylidine-4-spirocycloheptyl-1-[4-(2-tetrazolophenyl)benzyl]pyrrolidin-2-one Pyridinium Salt, 1.3 Hydrate], the inhibition at 10 µM in assay [1] came to 100%. Besides, in the assay on Angiotensin Receptor, the “Antihypertensive Activity (p.o.): active @ dose” value is 30 mpk. In assay [2], the Kb was 4.37 nM.

For the molecule `CCOC(=O)C=C1CC(C)(CC)CC(=O)N1Cc1ccc(-c2ccccc2-c2nnn[nH]2)cc1` (stereo not drawn) [ae, 6-Carbethoxymethyliden-4-ethyl-4-methyl-1-[4-(2-tetrazolophenyl)benzyl]piperidine-2-one Pyridinium Salt, 1.25 Hydrate], in assay [1], the inhibition at 10 µM stood at 100%. Moreover, in the assay on Angiotensin Receptor, the “Antihypertensive Activity (p.o.): active @ dose” value turned out to be 10 mpk. The Kb in assay [2] is 1.07 nM.

Consider `CCOC(=O)C=C1N(Cc2ccc(-c3ccccc3-c3nnn[nH]3)cc2)C(=O)CC12CCCC2` [af, 5-Carbethoxymethylidine-4-spirocyclopentyl-1-[4-(2-tetrazolophenyl)benzyl]pyrrolidin-5-one Pyridinium Salt, 1.4 Hydrate], for which the inhibition at 10 µM in assay [1] is 100%. In addition, in the assay with Angiotensin Receptor, the “Antihypertensive Activity (p.o.): active @ dose” value came out at 30 mpk. Further, the Kb in assay [2] is 3.63 nM.

With `CCOC(=O)C=C1C2C3CCCC(CC3)C2C(=O)N1Cc1ccc(-c2ccccc2-c2nnn[nH]2)cc1` (stereo not drawn) [ag, 3-Carbethoxymethyliden-2-[4-(2-tetrazolophenyl)benzyl]-4,7-endopropylen-1,3,4,5,6,7-hexahydro-1-oxoisoindole Dihydrate], the inhibition at 10 µM in assay [1] is 100%. Besides, in the assay on Angiotensin Receptor, the “Antihypertensive Activity (p.o.): active @ dose” value is on record as 30 mpk.

In the case of `CCOC(=O)C=C1C2C3C=CC(CCC3)C2C(=O)N1Cc1ccc(-c2ccccc2-c2nnn[nH]2)cc1` (stereo not drawn) [ah, 3-Carbethoxymethyliden-2-[4-(2-tetrazolophenyl)benzyl]-4,7-endopropylen-1,3,4,7-tetrahydro-1-oxoisoindole Pyridinium Salt, 1.75 Hydrate], the inhibition at 10 µM in assay [1] is 100%. Further, the “Antihypertensive Activity (p.o.): active @ dose” value with Angiotensin Receptor was more than 30 mpk. Moreover, the Kb in assay [2] is 14.1 nM.

Consider `CCOC(=O)C=C1C2C3C=CC(C3)C2C(=O)N1Cc1ccc(-c2ccccc2C(=O)OC)cc1` (stereo not drawn) [m, 3-Carbethoxymethyliden-2-[4-(2-carbomethoxyphenyl)benzyl]-4,7-endomethylen-1,3,4,7-tetrahydro-1-oxoisoindole], for which, in assay [1], the inhibition at 10 µM amounted to 0%.

With `CCOC(=O)C=C1C2C3C=CC(CC3)C2C(=O)N1Cc1ccc(-c2ccccc2C#N)cc1` (stereo not drawn) [p, 3-Carbethoxymethyliden-2-[4-(2-cyanophenyl)benzyl]-4,7-endoethylen-1,3,4,7-tetrahydro-1-oxoisoindole], in assay [1], the inhibition at 10 µM was 3%.

For `CCOC(=O)C=C1CC(C)(C)CC(=O)N1Cc1ccc(-c2ccccc2-c2nnn[nH]2)cc1` [s, 6-Carbethoxymethyliden-4,4-dimethyl-1-[4-(2-tetrazolophenyl)benzyl]piperidin-2-one Pyridinium salt], in assay [1], the inhibition at 10 µM was 100%. Besides, the “Antihypertensive Activity (p.o.): active @ dose” value with Angiotensin Receptor was 30 mpk. In addition, the Kb in assay [2] is 39.8 nM.

With `CCOC(=O)C=C1CC2(CCCC2)CC(=O)N1Cc1ccc(-c2ccccc2-c2nnn[nH]2)cc1` [t, 6-Carbethoxymethyliden-4-spirocyclopentyl-1-[4-(2-tetrazolophenyl)benzyl]piperidin-2-one Pyridinium Salt], the inhibition at 10 µM in assay [1] was 100%. In addition, the “Antihypertensive Activity (p.o.): active @ dose” value with Angiotensin Receptor is recorded as 30 mpk. For the same molecule, in assay [2], the Kb is 14.1 nM.

Turning to `CCOC(=O)C=C1C2C3C=CC(CC3)C2C(=O)N1Cc1ccc(-c2ccccc2-c2nnn[nH]2)cc1` (stereo not drawn) [u, 3-Carbethoxymethyliden-2-[4-(2-tetrazolophenyl)benzyl]-4,7-endoethylen-1,3,4,7-tetrahydro-1-oxoisoindole], the inhibition at 10 µM in assay [1] stood at 99%. Further, the “Antihypertensive Activity (p.o.): active @ dose” value in the assay with Angiotensin Receptor was determined as 30 mpk. In assay [2], the Kb was 6.92 nM.

For `CCOC(=O)C=C1C2C3C=CC(C3)C2C(=O)N1Cc1ccc(-c2ccccc2-c2nnn[nH]2)cc1` (stereo not drawn) [v, 3-Carbethoxymethyliden-2-[4-(2-tetrazolophenyl)benzyl]-4,7-endomethylen-1,3,4,7-tetrahydro-1-oxoisoindole Pyridinium Salt], the inhibition at 10 µM in assay [1] stood at 100%. The Kb in assay [2] is 4.47 nM.

For `CCOC(=O)C=C1C2C3CCC(C3)C2C(=O)N1Cc1ccc(-c2ccccc2C(=O)OC)cc1` (stereo not drawn) [y, 3-Carbethoxymethyliden-2-[4-(2-carbomethoxyphenyl)benzyl]-4,7-endomethylen-1,3,4,5,6,7-hexahydro-1-oxoisoindole], in assay [1], the inhibition at 10 µM is 0%.

For `CCOC(=O)C=C1C2C3CCC(C3)C2C(=O)N1Cc1ccc(-c2ccccc2-c2nnn[nH]2)cc1` (stereo not drawn) [z, 3-Carbethoxymethyliden-2-[4-2-(tetrazolophenyl)benzyl]-4,7-endomethylen-1,3,4,5,6,7-hexahydro-1-oxoisoindole], in assay [1], the inhibition at 10 µM was 100%. Moreover, the “Antihypertensive Activity (p.o.): active @ dose” value with Angiotensin Receptor is given as 30 mpk. In addition, the Kb in assay [2] was 1.05 nM.

Regarding angiotensin II [reference compound], the EC90 in assay [1] (read-out: Mean ED90 for angiotensin II after DMSO vehicle treatment, after DMSO vehicle) is 5.88 nM; in assay [1] (read-out: Mean ED90 for angiotensin II before DMSO vehicle treatment, before DMSO vehicle) it was 4.44 nM.
